These results are taken from patent US11666562B2, “Ilaprazole for inhibiting the release of enveloped viruses from cells” (Northwestern University, priority 2020, dated 2023).

Data set [1] concerns HIV-1. Briefly: Release of HIV-1 from transfected 293T cells, p24 in media. In kind it is cell-based. Conditions: 293T cells transfected with pR9-HIV-1Ba-L, read-out: EC50, inhibition of HIV-1 release. Here is the method: Effect of Ilaprazole on release of HIV-1 in vitro. To establish the broad-spectrum potential of ilaprazole, we tested whether ilaprazole would inhibit the release of HIV-1 from 293T cells. To this end, cells were transfected with pR9-HIV-1Ba-L plasmid and release of virus into the media fraction was detected by monitoring the capsid (CA) protein (p24) via enzyme linked immunosorbent assay analysis. The drug was tested at concentrations between 0 and 40 μM and the effect of the drug on release of virus assessed (Table 4, shown in FIG. 8, column 2). Ilaprazole was effective at inhibiting the release of HIV-1 from cells with a calculated EC50 of 1 μM or less as described in Materials and Methods.
HIV-1 transfection of 293T cells. 293T cells (American Type Culture Collection) were grown in a 24-well Clear Flat Bottom TC-treated Multiwell Cell Culture Plate using Dulbecco's modified Eagle's medium (Cellgro) containing fetal bovine serum (10%), 100 U/ml penicillin, 100 μg/ml streptomycin, and 292 μg/ml 1-glutamine (Cellgro). […] Virus released from cells was quantified by media-associated p24 determined using fluorescently tagged CA targeting antibody (PerkinElmer) and equivalent amounts of p24 as standards.
Drug potency and cell toxicity. EC50 calculations were determined by using AAT Bioquest's EC50 calculator. […]

The test system of data set [2] is 293T cells. Briefly: 293T cell toxicity. The format is cell-based. Conditions: at drug concentrations that inhibited release of HIV-1. The procedure: Drug potency and cell toxicity. EC50 calculations were determined by using AAT Bioquest's EC50 calculator. Cell toxicity at different concentrations of drugs as indicated was determine using the Cell Proliferation Reagent WST-1 (Roche Diagnostics) or cellular 96® Aqueous One Reagent viability reagent according to manufacturer's instructions. For 293T cells, the concentration of DMSO was 0.2% or less and assays were carried out with DMEM with 10% serum. Cell toxicity experiments were repeated twice.

Data set [3] concerns DHPH. In words: FTS assay against unrelated protein DHPH. The format is binding, human. From the text:
(§1) FIG. 1. Thermal shift data of Tsg101 by lead compound Tenatoprazole (N16). […] (B) Thermal shift data of three human proteins, DHPH, ENO1, and MEK4 not related to Tsg101 by lead compound tenatoprazole. […] (C) The addition of DTT abolishes the Tm shift in the FTS assay, consistent with prazole compounds forming a disulfide bond to Tsg101. Rabe: Rabeprazole, Ila: Ilaprazole, Tenato: tenatoprazole, Panto: pantoprazole, ref: reference.
(§2) This specific binding is consistent with a previous NMR structure in which tenatoprazole forms a covalent disulfide bond to Cys73 in the UEV domain of the protein (5). This disulfide bond formation can be prevented by including the reducing agent DTT in the assay (FIG. 1C). The addition of DTT abolished the Tsg101-UEV Tm shift caused by the prazoles. […]
(§3) Fluorescence thermal shift (FTS) screening to identify small molecule binding to Tsg101-UEV. […] Discovery of small molecule binding to target protein utilizes the observation that ligand binding affects protein thermal stability, and therefore can be detected through a shift in the protein's thermal denaturation (melting) temperature (Tm). […] A fluorescence dye Sypro-Orange (Invitrogen) was used for assay detection. The dye is excited at 473 nm and has a fluorescence emission at 610 nm. […] Fluorescence was detected on a real-time PCR machine CFX384 (Bio-Rad Laboratories).

For data set [4], the target named is ENO1 (Homo sapiens, UniProt P06733). Briefly: FTS assay against unrelated protein ENO1. In kind it is binding.
Source text: as §1, §2, §3

Data set [5] has as its target T1, MEK4 (Homo sapiens, UniProt P45985).
T1 sequence (P45985 1-399): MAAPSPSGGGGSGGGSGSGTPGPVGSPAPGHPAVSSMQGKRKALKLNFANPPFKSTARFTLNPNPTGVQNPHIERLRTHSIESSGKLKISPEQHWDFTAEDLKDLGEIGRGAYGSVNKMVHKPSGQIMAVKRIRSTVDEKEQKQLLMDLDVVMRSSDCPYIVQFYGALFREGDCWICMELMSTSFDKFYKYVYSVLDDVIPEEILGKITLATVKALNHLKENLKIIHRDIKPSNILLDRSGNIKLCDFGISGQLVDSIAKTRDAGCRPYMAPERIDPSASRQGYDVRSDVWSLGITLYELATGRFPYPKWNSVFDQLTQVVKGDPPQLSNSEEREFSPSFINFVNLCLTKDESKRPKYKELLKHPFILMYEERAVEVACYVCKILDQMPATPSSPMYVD
In words: FTS assay against unrelated protein MEK4. In kind it is binding.
Source text: as §1, §2, §3

Data set [6] concerns HIV-1. The settings on record: earlier reports (refs 5, 29); cited from earlier work.

“Also recorded” adds a separate entry of the source. Like-named read-outs stand apart in the source and are kept apart here. Where only a bound is given, the exact number is not on record here.

ENO1, sequence (P06733 whole entry): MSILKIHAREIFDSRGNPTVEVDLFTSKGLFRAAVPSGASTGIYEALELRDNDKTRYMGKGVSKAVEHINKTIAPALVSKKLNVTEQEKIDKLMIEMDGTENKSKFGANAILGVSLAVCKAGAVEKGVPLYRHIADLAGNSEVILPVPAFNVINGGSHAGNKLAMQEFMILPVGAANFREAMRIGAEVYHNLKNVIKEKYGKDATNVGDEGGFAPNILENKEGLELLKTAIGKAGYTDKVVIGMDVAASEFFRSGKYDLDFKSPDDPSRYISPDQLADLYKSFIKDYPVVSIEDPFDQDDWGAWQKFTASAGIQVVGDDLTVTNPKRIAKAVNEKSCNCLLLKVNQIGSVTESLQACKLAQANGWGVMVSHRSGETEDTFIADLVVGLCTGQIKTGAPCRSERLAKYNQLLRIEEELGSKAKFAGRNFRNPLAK

By EC50 is commonly meant the concentration at which the effect is half-maximal. For `COc1ccnc(C[S+]([O-])c2nc3ccc(-n4cccc4)cc3[nH]2)c1C` (stereo not shown) [Ilaprazole, 2-[(4-methoxy-3-methylpyridin-2-yl)methylsulfinyl]-6-pyrrol-1-yl-1H-benzimidazole], the EC50 is at most 1000 nM in data set [1] and 800 to 1200 nM in data set [1] (Human immunodeficiency virus 1, HEK-293T). For the same compound, in data set [2], the “Toxicity to 293T cells” value is “did not detect toxicity”.

For the compound `COc1ccc2[nH]c([S+]([O-])Cc3ncc(C)c(OC)c3C)nc2n1` (stereo not shown) [Tenatoprazole], the “Effect on thermal stability (Tm shift) of DHPH” value in data set [3] is given as “negligible; also recorded: did not observe a Tm shift”. For the same compound, the “Effect on thermal stability (Tm shift) of ENO1” value in data set [4] is listed as “negligible; also recorded: did not observe a Tm shift”. For the same compound, in data set [5], the “Effect on thermal stability (Tm shift) of MEK4” value was “negligible; also recorded: did not observe a Tm shift”. Besides, the “Inhibition of release of infectious HIV-1 from 293T cells” value in data set [6] is “quantitatively inhibit the release”.
